Laboratory results as given in ChEMBL document CHEMBL3430912, “GSK Tres Cantos Anti-Kinetoplastid Screening (TCAKS) Data”.

Legend:
[1] = tested on: Trypanosoma cruzi; assay: GSK_TCAKS: pIC50 Trypanosoma cruzi viability assay using beta-GAL activity. This assay was run at single shot at 5uM compound concentration per well. The biological reagents consisted of NIH-3T3 host cells and trypomastigotes parasitic cells; both cell types were set to a 3.3 * 10^5 cells/mL dilution in assay DMEM by means of a CASY cell counter device using a 60um capillary. 6 uL of the mixture were dispensed per well (about 1 * 10^3 host-cells and 1 * 10^3 parasites) with a Multidrop Combi dispenser. […] In all wells, the percentage of DMSO never exceeded 0.5%. Plates incubated for four days at 37C, 5% CO2. The substrate used for the assay fluorescence intensity (FLINT) readout was resorufin-beta-D-galactopiranoside (Sigma-Aldrich) at 5uM per well. It was diluted in PBS supplemented with the soft detergent Igepal (Fluka).; format: functional, organism-based, Mus musculus; details: Tulahuen, NIH3T3
[2] = tested on: Trypanosoma cruzi; assay: (§1) GSK_TCAKS: pIC50 Trypanosoma cruzi Imaging: Infected Cells. […] Cells were then washed once with PBS before infection. T. cruzi trypomastigotes, collected at days 5 to 8 after infection from LLC-MK2 parasite infected cultures, were allowed to swim out for 4h at 37C from a centrifuged pellet (2,500 rpm/10 min/room temperature). Trypomastigotes were then collected and counted in a CASY Cell Counter. Trypomastigotes, in supplemented DMEM, were added to H9c2 cultures in a multiplicity of infection of 1 and incubated for 18 h. Cells were washed once with PBS before incubation of the infected H9c2 monolayer with trypsin (Life-Technologies) to detach cells from the flask. Cells were counted in a CASY Cell Counter using a 150 um capillary and their density set at 5 * 10^4 cells per mL in supplemented assay DMEM. Infected H9c2 were dispensed into 384-well poly-lysine coated assay plates at 50uL per well using a Multidrop Combi dispenser. After seeding them, the plates were incubated at 37C, 5% CO2 for 72h. Cultures were then fixed and stained by addition of 50 uL of a solution containing 8% formaldehyde and 4 uM DRAQ5 DNA dye (BioStatus, UK) per well. […] Five images were collected per well for reliable statistical analysis. Automated image analysis was performed with a script developed on Acapella High Content Imaging and Analysis Software (PerkinElmer). Output: percentage of infected cells per well as a second infection marker.; format: functional, organism-based, Rattus norvegicus; details: H9c2, 4 h
[3] = tested on: Trypanosoma cruzi; assay: GSK_TCAKS: pIC50 Trypanosoma cruzi Imaging: Amastigotes/Cell. […] Cells were then washed once with PBS before infection. T. cruzi trypomastigotes, collected at days 5 to 8 after infection from LLC-MK2 parasite infected cultures, were allowed to swim out for 4h at 37C from a centrifuged pellet (2,500 rpm/10 min/room temperature). Trypomastigotes were then collected and counted in a CASY Cell Counter. Trypomastigotes, in supplemented DMEM, were added to H9c2 cultures in a multiplicity of infection of 1 and incubated for 18 h. Cells were washed once with PBS before incubation of the infected H9c2 monolayer with trypsin (Life-Technologies) to detach cells from the flask. Cells were counted in a CASY Cell Counter using a 150 um capillary and their density set at 5 * 10^4 cells per mL in supplemented assay DMEM. Infected H9c2 were dispensed into 384-well poly-lysine coated assay plates at 50uL per well using a Multidrop Combi dispenser. After seeding them, the plates were incubated at 37C, 5% CO2 for 72h. Cultures were then fixed and stained by addition of 50 uL of a solution containing 8% formaldehyde and 4 uM DRAQ5 DNA dye (BioStatus, UK) per well. […] Five images were collected per well for reliable statistical analysis. Automated image analysis was performed with a script developed on Acapella High Content Imaging and Analysis Software (PerkinElmer). Output: number of amastigotes per cell as infection level measurement.; format: functional, organism-based, Rattus norvegicus; details: H9c2, 4 h
[4] = tested on: Trypanosoma cruzi; assay: as §1, with “H2C9” for “Trypanosoma cruzi”, “H9c2 Host Cardiomyocytes.” for “Infected Cells.”, “Number” for “percentage”, “H9c2 Host Cardiomyocytes nuclei to determine drug-related cytotoxicity.” for “infected cells per well as a second infection marker.”; format: functional, organism-based, Rattus norvegicus; details: H9c2, 4 h
[5] = tested on: Leishmania donovani; assay: GSK_TCAKS: pIC50 Leishmania donovani viability assay using fluorescence intensity. Assay plates (1536-well) were prepared by adding 30nL per well of compound. For single shot assay, the final compound concentration was 5uM. […] Briefly, eGFP LdBOB axenic amastigotes were harvested, fixed and counted in a CASY cell counter (Roche-Applied Science). A final concentration of 1.5 * 10^5 cells per well were prepared in amastigote media containing 500 U/mL penicillin/streptomycin (Invitrogen) and 6uL was dispensed to each experimental well using a Multidrop Combi dispenser (Thermo Scientific). 6uL of assay media was dispensed to control columns used as reference for 100% compound response. Following incubation for 72 h at 37C, 5% CO2, 2 uL of resazurin was added to each well at a final concentration of 0.5 mM in phosphate buffered saline (PBS) with IGEPAL (Sigma-Aldrich), 0.05% (v/v).; format: functional, organism-based
[6] = tested on: Leishmania donovani; assay: GSK_TCAKS: pIC50 Leishmania donovani Imaging: Infected Macrophages. Assay plates (384-well) were prepared by adding 250nL of compound to each well. For single shot assay, the final compound concentration was 5 uM. […] Automated image analysis was performed with a script developed on Acapella High Content Imaging and Analysis Software (PerkinElmer). Output: Percent of infected macrophage cells were reported for each well.; format: functional, organism-based, Homo sapiens; details: THP-1
[7] = tested on: Leishmania donovani; assay: GSK_TCAKS: pIC50 Leishmania donovani Imaging: THP-1 Host Macrophages. Assay plates (384-well) were prepared by adding 250nL of compound to each well. For single shot assay, the final compound concentration was 5 uM. […] Automated image analysis was performed with a script developed on Acapella High Content Imaging and Analysis Software (PerkinElmer). Output: THP-1 cell count were reported for each well.; format: functional, organism-based, Homo sapiens
[8] = tested on: Trypanosoma brucei brucei; assay: GSK_TCAKS: pIC50 Trypanosoma brucei viability assay using fluorescence intensity. Assay plates (1536-well) were prepared by dispensing 25nL of compound solution per well using an Echo acoustic dispenser (Labcyte).; format: functional, organism-based; details: Lister 427, 2 h
[9] = tested on: Trypanosoma brucei brucei; assay: GSK_TCAKS: pIC50 Trypanosoma brucei viability assay using luminiscence. Assay plates (1536-well) were prepared. T. brucei cultures were harvested and counted in a CASY cell counter. A parasite suspension was prepared at a final concentration of 5 * 10^4 cells/mL in complete HMI9 medium and 6uL was dispensed to all wells containing compounds using a Multidrop Combi dispenser. 6uL of HMI9 media with 0.4% DMSO were dispensed to control columns. Plates were incubated for 24 h at 37C, 5% CO2 then tempered for 10 min at room temperature. ATP content was quantified by adding 4 uL of CellTiter-Glo Reagent (Promega) according to the manufacturer's instructions. Luminescence was measured using a ViewLux.; format: functional, organism-based; details: Lister 427, CASY
[10] = GSK_TCAKS: pIC50 HepG2 human cell line viability assay using luminiscence. […] Seeding density was checked to ensure that new mono-layers were not more than 50% confluent at the time of harvesting. Cell suspension was added to 500 mL of the same medium at a final density of 1.2 * 10^5 cells/mL. This cell suspension was dispensed (25 uL, 3000 cells per well) into 384-well clear-bottom plates using a Multidrop Combi dispenser. Prior to addition of the cell suspension, the screening compounds (250 nL) were pre-dispensed into the plates with an Echo liquid handler. Plates were incubated for 48 h at 37C, 5% CO2. After incubation, plates equilibrated at room temperature for 30 min before proceeding to develop the luminescent signal. The signal developer, CellTiter-Glo Reagent, was allowed to equilibrate at room temperature for 30 min and added to the plates (25uL per well) using a Multidrop Combi dispenser. Plates were left for 10 min at room temperature for stabilization and then read using a ViewLux.; format: toxicity, cell-based
[11] = tested on: NIH3T3; assay: GSK_TCAKS: pIC50 NIH 3T3 cell line viability assay using luminiscence. Tissue culture surface treated assay plates (1536-well) were used. […] The 100% cells survival control was determined exposing the host-cells to a 0.5% DMSO concentration, whereas the 100% toxicity control was achieved by seeding the cells in presence of Amphotericin B at 50uM. Plates were incubated for four days at 37C, 5% CO2. The assay readout was developed by addition of 5uL of CellTiter-Glo Reagent following the manufacturer's instructions. Luminiscence was measured using a ViewLux.; format: functional, cell-based; details: Mus musculus, NIH3T3, 96 h
[12] = target: Sterol 14-alpha demethylase (Trypanosoma cruzi (strain CL Brener), UniProt Q7Z1V1); assay: GSK_TCAKS: pIC50 CYP51 from Trypanosoma cruzi.; format: functional
Sterol 14-alpha demethylase, sequence (Q7Z1V1 whole entry): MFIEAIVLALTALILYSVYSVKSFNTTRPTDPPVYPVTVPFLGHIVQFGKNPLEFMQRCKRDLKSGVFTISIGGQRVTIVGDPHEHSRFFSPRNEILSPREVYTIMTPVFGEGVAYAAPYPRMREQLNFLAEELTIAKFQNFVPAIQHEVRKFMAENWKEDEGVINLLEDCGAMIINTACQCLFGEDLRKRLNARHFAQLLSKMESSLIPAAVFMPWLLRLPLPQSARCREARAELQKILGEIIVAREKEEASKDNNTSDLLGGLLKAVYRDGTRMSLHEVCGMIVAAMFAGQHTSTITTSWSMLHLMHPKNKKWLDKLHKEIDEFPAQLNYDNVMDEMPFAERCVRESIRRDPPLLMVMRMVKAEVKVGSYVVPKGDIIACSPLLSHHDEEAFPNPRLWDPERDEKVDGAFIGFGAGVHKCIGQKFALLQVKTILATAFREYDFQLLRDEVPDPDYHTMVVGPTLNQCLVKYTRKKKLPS

[13] = tested on: Leishmania donovani; assay: GSK_TCAKS: pIC50 Leishmania donovani Imaging: Amastigotes/Macrophages. Assay plates (384-well) were prepared by adding 250nL of compound to each well. For single shot assay, the final compound concentration was 5 uM. […] Automated image analysis was performed with a script developed on Acapella High Content Imaging and Analysis Software (PerkinElmer). Output: Average number of amastigotes per macrophage cell were reported for each well.; format: functional, organism-based, Homo sapiens; details: THP-1

Structure (SMILES) | IC50 [1] [µM] | IC50 [2] [µM] | IC50 [3] [µM] | IC50 [4] [µM] | IC50 [5] [µM] | IC50 [6] [µM] | IC50 [7] [µM] | IC50 [8] [µM] | IC50 [9] [µM] | IC50 at 48 h [10] [µM] | IC50 [11] [µM] | IC50 [12] [µM] | IC50 [13] [µM]
Fc1ccccc1N1C[C@H]2CCN(c3cccnc3)C[C@H]2C1 | 0.2 | 0.2 | 0.2 | > 50.1 | 12.6 | > 50.1 | > 50.1 | 31.6 | > 39.8 | > 100 | 12.6 | 0.0631 | –
FC(F)(F)c1cc(C2CCCN(Cc3c[nH]c4ccccc34)C2)nc2ncnn12 (configuration not stated) | 1.58 | 10 | 6.31 | > 50.1 | > 50.1 | > 50.1 | 15.8 | > 39.8 | > 39.8 | > 100 | 20 | – | > 50.1
Nc1ncnc2c1ncn2[C@@H]1O[C@H](CO)C[C@H]1O [CORDYCEPIN] | 1.12 | 2 | 1.26 | – | > 50.1 | > 50.1 | > 50.1 | 0.0126 | 0.01 | > 100 | > 50.1 | > 100 | > 50.1
CCN(C)Cc1ccc(N2CCC(NS(=O)(=O)c3ccc4c(c3)CCO4)CC2)nc1 | 0.631 | 1.26 | 1 | > 50.1 | > 50.1 | > 50.1 | > 50.1 | > 39.8 | 39.8 | > 100 | 12.6 | > 100 | –
N#Cc1nc(C=Cc2ccccc2)oc1NCc1cccnc1 | 0.251 | 0.398 | 0.398 | 15.8 | 25.1 | 39.8 | 31.6 | 15.8 | 31.6 | > 100 | 12.6 | – | 31.6
CC(C)Oc1ccc(C(=O)Nc2ccc(N3CCOCC3)c(Cl)c2)cc1 | 1.58 | 1.26 | 1.26 | > 50.1 | > 50.1 | > 50.1 | > 50.1 | 12.6 | – | 31.6 | 10 | > 100 | 3.16
Cn1c(CN2CCN(c3ncc(C(F)(F)F)cc3Cl)CC2)nc2ccncc21 | 0.794 | 1 | 1 | > 50.1 | 5.01 | > 50.1 | 6.31 | 6.31 | > 39.8 | > 100 | 10 | 0.0794 | –
CC(Cn1ccnc1)NC(=O)C=Cc1ccc(Cl)cc1 (configuration not stated) | 0.398 | 1 | 0.631 | > 50.1 | > 50.1 | > 50.1 | > 50.1 | > 39.8 | – | > 100 | > 50.1 | 0.158 | > 50.1
CN(C)CCOc1ccc(N2CCN(S(=O)(=O)c3ccc(Cl)cc3)CC2)cc1 | 0.631 | 0.631 | 0.501 | > 50.1 | 39.8 | 31.6 | > 50.1 | 20 | 25.1 | 50.1 | 15.8 | – | 31.6
CCCCNc1nccc(-c2c(-c3ccc(F)cc3)nn3c(N4CCOCC4)cccc23)n1 | 0.398 | 3.16 | 1 | > 50.1 | > 50.1 | 6.31 | 12.6 | 10 | – | > 100 | 10 | > 100 | > 50.1
c1cncc(CN(Cc2ccco2)Cc2c[nH]nc2-c2cccs2)c1 | 0.02 | 0.0501 | 0.0398 | > 50.1 | 31.6 | > 50.1 | 20 | 25.1 | – | > 100 | 31.6 | 0.0794 | 1.26
